Experimental data taken from patent publication US9157105B2, “Biosynthesis of CMP-legionaminic acid from fructose-6-P, and respective pathway intermediates, using novel GDP-linked precursors” (priority 2008, dated 2015).

Assays:
Type in all cases: biochemical, Campylobacter jejuni 11168
[1] = molecular target: T1, His6LegG (Cj1328, NDP-sugar hydrolase/2-epimerase) (Campylobacter jejuni subsp. jejuni serotype O:2, UniProt Q0P8T0); experiment: His6LegG activity and substrate flexibility (1H NMR, CE)
T1 construct: made in house; host or cells: E. coli BL21[DE3]
T1 sequence (Q0P8T0 whole entry): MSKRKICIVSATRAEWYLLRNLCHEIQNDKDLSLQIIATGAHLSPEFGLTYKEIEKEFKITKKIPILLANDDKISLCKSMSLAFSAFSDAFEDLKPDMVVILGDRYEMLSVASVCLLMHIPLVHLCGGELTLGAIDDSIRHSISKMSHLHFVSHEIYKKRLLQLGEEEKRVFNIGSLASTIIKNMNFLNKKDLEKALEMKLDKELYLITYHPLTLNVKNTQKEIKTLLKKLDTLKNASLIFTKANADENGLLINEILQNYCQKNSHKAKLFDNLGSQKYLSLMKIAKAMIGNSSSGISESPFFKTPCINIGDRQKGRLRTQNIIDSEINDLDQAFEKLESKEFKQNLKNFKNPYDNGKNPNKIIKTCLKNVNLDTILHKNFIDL
Experimental: Enzymatic reactions were performed for 4.5 h at 37° C., and then overnight at 25° C., with approximately 200 μg ml^−1 respective protein concentration using chemicals from Sigma (unless otherwise indicated). GDP-glucosamine biosynthesis. The ‘one-pot’ enzymatic synthesis of GDP-GlcN from Fru-6-P (I→IV) was accomplished using a 3 ml reaction containing His6PtmF, PtmAHis6, PgmLHis6, His6PtmE, 5 mM Fru-6-P (I), 10 mM L-Gln, 1 mM DTT, 5 mM MgCl2, 0.8 U ml^−1 pyrophosphatase, and 2.5 mM GTP in 25 mM Tris pH 7.5. Large-scale enzymatic synthesis of GDP-GlcN (IV) was accomplished using a 12 ml reaction containing 50 mM Tris pH 7.5, 1 mM GTP, 1 mM MgCl2, 0.8 U ml^−1 pyrophosphatase, 1.2 mM GlcN-1-P (III) and approximately 4.8 mg of His6PtmE. The large-scale enzymatic synthesis of GDP-GlcNAc was performed similar to that above, except the scale was increased five-fold and GlcNAc-1-P was used in place of GlcN-1-P (III). Assessment of His6PtmE substrate specificity was accomplished using 9 reactions, 80 μl each, containing 50 mM Tris pH 7.5, 2 mM MgCl2, 50 μg His6PtmE, and various combinations of 10 mM sugar-1-P (GalN-1-P, GlcN-1-P or GlcNAc-1-P) and 0.2 mM NTP (CTP, GTP, or TTP). Conversion of GDP-GlcN to GDP-GlcNAc. The His6GlmU reaction was performed using 1 mM GDP-GlcN (IV), 1.2 mM acetyl-CoA and His6GlmU in 25 mM sodium phosphate pH 7.8, 25 mM NaCl, 10 mM β-mercaptoethanol. In addition, a control reaction was performed containing 1 mM GlcN-1-P (III) instead of IV. Biosynthesis of legionaminic acid from GDP-GlcNAc. The stepwise enzymatic synthesis of intermediates or products was accomplished in 2 stages (V→VI→VII→VIII, and then VIII→IX→X) using 1 mM of V, 0.5 mM NAD, 0.8 mM PLP, 8 mM L-Glu, 1.2 mM acetyl-CoA, 1.2 mM PEP, LegBHis6, His6LegC, His6LegH, His6LegG, and His6LegI as appropriate, in 25 mM sodium phosphate pH 7.3, 25 mM NaCl. Assessment of His6LegG activity involved monitoring the reaction kinetics by ^1H NMR (see NMR spectroscopy) for 75 min using 0.75 mM GDP-2,4-diacetamido-2,4,6-trideoxy-α-D-Glc (VIII), 4 μg His6LegG in 200 μl of 25 mM sodium phosphate pH 7.3, 25 mM NaCl at 25° C. In addition, the substrate flexibility of His6LegG was assessed using a 300 μl reaction containing 40 μg His6LegG, 25 mM sodium phosphate pH 7.3, 25 mM NaCl, and 0.75 mM UDP-2,4-diacetamido-2,4,6-trideoxy-α-D-Glc, with incubation at 37° C. for 1.5 h, and then overnight at 25° C. Biosynthesis of CMP-legionaminic acid. […] Quantification of NDP-sugar preparations was determined using the molar extinction coefficients of CMP (ε260=7,400), GDP (ε260=11,500), TDP (ε260=8,700), and UDP (ε260=10,000). […]

[2] = system: His6PtmE (Cj1329, nucleotidyltransferase); experiment: His6PtmE substrate specificity (sugar-1-P acceptors and NTP donors); details: 10 mM sugar-1-P, 0.2 mM NTP, 30 min at 37° C.
Experimental: […] GDP-glucosamine biosynthesis. The ‘one-pot’ enzymatic synthesis of GDP-GlcN from Fru-6-P (I→IV) was accomplished using a 3 ml reaction containing His6PtmF, PtmAHis6, PgmLHis6, His6PtmE, 5 mM Fru-6-P (I), 10 mM L-Gln, 1 mM DTT, 5 mM MgCl2, 0.8 U ml^−1 pyrophosphatase, and 2.5 mM GTP in 25 mM Tris pH 7.5. Large-scale enzymatic synthesis of GDP-GlcN (IV) was accomplished using a 12 ml reaction containing 50 mM Tris pH 7.5, 1 mM GTP, 1 mM MgCl2, 0.8 U ml^−1 pyrophosphatase, 1.2 mM GlcN-1-P (III) and approximately 4.8 mg of His6PtmE. The large-scale enzymatic synthesis of GDP-GlcNAc was performed similar to that above, except the scale was increased five-fold and GlcNAc-1-P was used in place of GlcN-1-P (III). Assessment of His6PtmE substrate specificity was accomplished using 9 reactions, 80 μl each, containing 50 mM Tris pH 7.5, 2 mM MgCl2, 50 μg His6PtmE, and various combinations of 10 mM sugar-1-P (GalN-1-P, GlcN-1-P or GlcNAc-1-P) and 0.2 mM NTP (CTP, GTP, or TTP). Conversion of GDP-GlcN to GDP-GlcNAc. The His6GlmU reaction was performed using 1 mM GDP-GlcN (IV), 1.2 mM acetyl-CoA and His6GlmU in 25 mM sodium phosphate pH 7.8, 25 mM NaCl, 10 mM β-mercaptoethanol. In addition, a control reaction was performed containing 1 mM GlcN-1-P (III) instead of IV. Biosynthesis of legionaminic acid from GDP-GlcNAc. The stepwise enzymatic synthesis of intermediates or products was accomplished in 2 stages (V→VI→VII→VIII, and then VIII→IX→X) using 1 mM of V, 0.5 mM NAD, 0.8 mM PLP, 8 mM L-Glu, 1.2 mM acetyl-CoA, 1.2 mM PEP, LegBHis6, His6LegC, His6LegH, His6LegG, and His6LegI as appropriate, in 25 mM sodium phosphate pH 7.3, 25 mM NaCl. Assessment of His6LegG activity involved monitoring the reaction kinetics by ^1H NMR (see NMR spectroscopy) for 75 min using 0.75 mM GDP-2,4-diacetamido-2,4,6-trideoxy-α-D-Glc (VIII), 4 μg His6LegG in 200 μl of 25 mM sodium phosphate pH 7.3, 25 mM NaCl at 25° C. In addition, the substrate flexibility of His6LegG was assessed using a 300 μl reaction containing 40 μg His6LegG, 25 mM sodium phosphate pH 7.3, 25 mM NaCl, and 0.75 mM UDP-2,4-diacetamido-2,4,6-trideoxy-α-D-Glc, with incubation at 37° C. for 1.5 h, and then overnight at 25° C. Biosynthesis of CMP-legionaminic acid. The CMP-activation of legionaminic acid (X→XI) was performed using a 20 ml reaction containing approximately 0.2 mM of X, 50 mM MgCl2, 3 mM CTP, and 15 mg of LegFHis6 in 25 mM sodium phosphate pH 7.8, 25 mM NaCl, with incubation at 37° C. for 5 h, and then 25° C. for 72 h. Metabolite purification. Typically, reactions were passed through an Amicon Ultra-15 (10,000 molecular weight cut-off) or Ultra-4 (5,000 molecular weight cut-off) filter membrane before analysis. As required, NDP-sugar preparations (GDP-Glc, GDP-GlcN, GDP-GlcNAc, CDP-GlcNAc, TDP-GlcNAc, and CMP-Leg) were lyophilized and desalted/purified using a Superdex Peptide 10/300 GL (Amersham Biosciences) column in 25 mM ammonium bicarbonate, pH 7.9. For further purity, the NDP-sugar samples above were subjected to anion-exchange chromatography (Mono Q 4.6/100 PE, Amersham Biosciences) using ammonium bicarbonate pH 7.9. Quantification of NDP-sugar preparations was determined using the molar extinction coefficients of CMP (ε260=7,400), GDP (ε260=11,500), TDP (ε260=8,700), and UDP (ε260=10,000).
(§1) CE analysis was performed using either a P/ACE 5510 or P/ACE MDQ system (Beckman Instruments, Mississauga, Ont) with diode array detection. The capillaries were bare silica 50 μm×50 cm, with a detector at 50 cm, and the running buffer was 25 mM sodium tetraborate pH 9.4. Samples were introduced by pressure injection for 6 sec, and the separation was performed at 18 kV for 20 min. Peak integration was done using the Beckman P/ACE station software.

[3] = system: LegB (Cj1319, 4,6-dehydratase); experiment: LegB C4,6 dehydratase reaction with NDP-sugars; details: in the presence or absence of NAD(P)+
Experimental: Enzymatic reactions were performed for 4.5 h at 37° C., and then overnight at 25° C., with approximately 200 μg ml^−1 respective protein concentration using chemicals from Sigma (unless otherwise indicated). GDP-glucosamine biosynthesis. The ‘one-pot’ enzymatic synthesis of GDP-GlcN from Fru-6-P (I→IV) was accomplished using a 3 ml reaction containing His6PtmF, PtmAHis6, PgmLHis6, His6PtmE, 5 mM Fru-6-P (I), 10 mM L-Gln, 1 mM DTT, 5 mM MgCl2, 0.8 U ml^−1 pyrophosphatase, and 2.5 mM GTP in 25 mM Tris pH 7.5. Large-scale enzymatic synthesis of GDP-GlcN (IV) was accomplished using a 12 ml reaction containing 50 mM Tris pH 7.5, 1 mM GTP, 1 mM MgCl2, 0.8 U ml^−1 pyrophosphatase, 1.2 mM GlcN-1-P (III) and approximately 4.8 mg of His6PtmE. The large-scale enzymatic synthesis of GDP-GlcNAc was performed similar to that above, except the scale was increased five-fold and GlcNAc-1-P was used in place of GlcN-1-P (III). Assessment of His6PtmE substrate specificity was accomplished using 9 reactions, 80 μl each, containing 50 mM Tris pH 7.5, 2 mM MgCl2, 50 μg His6PtmE, and various combinations of 10 mM sugar-1-P (GalN-1-P, GlcN-1-P or GlcNAc-1-P) and 0.2 mM NTP (CTP, GTP, or TTP). Conversion of GDP-GlcN to GDP-GlcNAc. The His6GlmU reaction was performed using 1 mM GDP-GlcN (IV), 1.2 mM acetyl-CoA and His6GlmU in 25 mM sodium phosphate pH 7.8, 25 mM NaCl, 10 mM β-mercaptoethanol. In addition, a control reaction was performed containing 1 mM GlcN-1-P (III) instead of IV. Biosynthesis of legionaminic acid from GDP-GlcNAc. The stepwise enzymatic synthesis of intermediates or products was accomplished in 2 stages (V→VI→VII→VIII, and then VIII→IX→X) using 1 mM of V, 0.5 mM NAD, 0.8 mM PLP, 8 mM L-Glu, 1.2 mM acetyl-CoA, 1.2 mM PEP, LegBHis6, His6LegC, His6LegH, His6LegG, and His6LegI as appropriate, in 25 mM sodium phosphate pH 7.3, 25 mM NaCl. Assessment of His6LegG activity involved monitoring the reaction kinetics by ^1H NMR (see NMR spectroscopy) for 75 min using 0.75 mM GDP-2,4-diacetamido-2,4,6-trideoxy-α-D-Glc (VIII), 4 μg His6LegG in 200 μl of 25 mM sodium phosphate pH 7.3, 25 mM NaCl at 25° C. In addition, the substrate flexibility of His6LegG was assessed using a 300 μl reaction containing 40 μg His6LegG, 25 mM sodium phosphate pH 7.3, 25 mM NaCl, and 0.75 mM UDP-2,4-diacetamido-2,4,6-trideoxy-α-D-Glc, with incubation at 37° C. for 1.5 h, and then overnight at 25° C. Biosynthesis of CMP-legionaminic acid. The CMP-activation of legionaminic acid (X→XI) was performed using a 20 ml reaction containing approximately 0.2 mM of X, 50 mM MgCl2, 3 mM CTP, and 15 mg of LegFHis6 in 25 mM sodium phosphate pH 7.8, 25 mM NaCl, with incubation at 37° C. for 5 h, and then 25° C. for 72 h. Metabolite purification. Typically, reactions were passed through an Amicon Ultra-15 (10,000 molecular weight cut-off) or Ultra-4 (5,000 molecular weight cut-off) filter membrane before analysis. As required, NDP-sugar preparations (GDP-Glc, GDP-GlcN, GDP-GlcNAc, CDP-GlcNAc, TDP-GlcNAc, and CMP-Leg) were lyophilized and desalted/purified using a Superdex Peptide 10/300 GL (Amersham Biosciences) column in 25 mM ammonium bicarbonate, pH 7.9. For further purity, the NDP-sugar samples above were subjected to anion-exchange chromatography (Mono Q 4.6/100 PE, Amersham Biosciences) using ammonium bicarbonate pH 7.9. Quantification of NDP-sugar preparations was determined using the molar extinction coefficients of CMP (ε260=7,400), GDP (ε260=11,500), TDP (ε260=8,700), and UDP (ε260=10,000).
as §1

| Structure (SMILES) | PtmE activity with sugar-1-P acceptor [2] | LegB reaction product formation [3] | also measured |
| --- | --- | --- | --- |
| CC(=O)N[C@H]1[C@@H](OP(=O)(O)OP(=O)(O)OC[C@H]2O[C@@H](n3ccc(=O)[nH]c3=O)[C@H](O)[C@@H]2O)O[C@H](C)[C@@H](NC(C)=O)[C@@H]1O [UDP-2,4-diacetamido-2,4,6-trideoxy-α-D-glucose, reference compound] |  |  | NDP removal by LegG ([1]; quantity of LegG increased 10-fold, 90 min 37° C. then 16 h 25° C., CE): UDP removal was observed; formation of IX by LegG ([1]; similar conditions (4 μg LegG)): IX was not observed |
| O=P(O)(O)O[C@H]1O[C@H](CO)[C@@H](O)[C@H](O)[C@H]1O [Glc-1-P, glucose-1-phosphate] | activity was observed |  |  |
| CC(=O)N[C@H]1[C@@H](OP(=O)(O)OP(=O)(O)OC[C@H]2O[C@@H](n3ccc(=O)[nH]c3=O)[C@H](O)[C@@H]2O)O[C@H](CO)[C@@H](O)[C@@H]1O [UDP-GlcNAc, UDP-N-acetyl-α-D-glucosamine] |  | did not yield discernable product |  |
| Cc1cn([C@H]2C[C@H](O)[C@@H](COP(=O)(O)OP(=O)(O)O[C@H]3O[C@H](CO)[C@@H](O)[C@H](O)[C@H]3O)O2)c(=O)[nH]c1=O [TDP-Glc] |  | did not yield discernable product |  |
| N[C@H]1C(OP(=O)(O)O)O[C@H](CO)[C@H](O)[C@@H]1O (stereo partly drawn) [GalN-1-P] | no activity was observed |  |  |
